How the values were obtained:
rodent = conditions: single dose; cited from earlier work
mice = mice pretreated, compared with vehicle-treated mice; cited from earlier work
[1] = Two Phase 1 studies in healthy adults aged 18 to 79: safety, PK, PD; type: in vivo, human
Source text: The 15-mg Compound I QD dose was selected based on safety, tolerability, PK, and PD data from repeated dosing at this level in two Phase 1 studies conducted in healthy adults aged 18 to 79 years. […] Across the Phase 1 studies, no safety concerns were identified. […] No impact on cognitive performance measures was observed.

rats = conditions: cited from earlier work
[2] = tested on: participants diagnosed with MELAS; experiment: MELAS study: cerebral blood flow by arterial spin labeling (ASL); type: in vivo, human; conditions: 15 mg QD
Protocol: Two exploratory functional neuroimaging modalities, arterial spin labeling (ASL) and functional magnetic resonance imaging (fMRI), were used to measure the potential PD effects of Compound I in the brain. While ASL quantifies regional CBF during the resting state, fMRI is a relative measure based on the blood-oxygen-level-dependent (BOLD) effect and was conducted during both a resting state and during a visual stimulus to measure brain activity.
Each individual MRI scanning session took approximately 45 minutes (maximum of ˜1 hour).
This change was observed across all brain regions of interest. Effect size throughout this disclosure is defined as the means change from baseline in a particular parameter that is being measured, divided by the standard deviation. Effect sizes closer to 1 or −1 (positive or negative dependent on the direction of movement for the specific parameter, i.e. +0.8 to +1.0 or −0.8 to −1.0) are usually considered large. Effect sizes between 0.5 and 0.8 or −0.5 and −0.8 (positive or negative dependent on the direction of movement for the specific parameter) are usually considered moderate. Effect sizes closer to below 0.5 or −0.5 (positive or negative dependent on the direction of movement for the specific parameter) are usually considered small.

healthy elderly subjects = conditions: cited from earlier work
[3] = Open-label single-arm study in MELAS (NCT04475549): safety and tolerability; type: in vivo, human; conditions: 15 mg QD for 29 days, patients with MELAS
Source text: This study was completed at 5 investigative sites in the United States. 8 participants completed the study. This study was an open-label, single-arm study evaluating the safety, tolerability, PK, and pharmacodynamics (PD) of Compound I when administered for up to 29 days to participants diagnosed with MELAS. Because this was the first study evaluating Compound I in a patient population, the primary objective was safety and tolerability. The overall study duration for participants was a maximum of 75 days, including the screening, treatment and follow up periods (ClinicalTrials.gov identifier NCT04475549).
The primary objective of the trial was to evaluate the safety and tolerability of Compound I when administered to a patient population of subjects with MELAS, by measuring AEs, SAEs and TEAEs leading to drug discontinuation.
Compound I is a CNS-active investigational drug. Although Compound I and other similar drugs in this class have not been associated with an increased risk of suicidal thinking or behavior, it was considered it important to monitor for such ideation or behavior before and during this clinical study. Therefore, participants were appropriately monitored and closely observed for suicidal ideation and behavior or any other unusual change in behavior. […]
A complete physical examination was to include examination and assessment of the following: general appearance, lymph nodes, nervous system; cardiovascular system; head, eyes, ears, nose, throat and skin; respiratory system, neck, mental status, abdomen/liver/spleen and musculoskeletal system. […] Clinically relevant findings that were present before study drug initiation on Day 1 were recorded as part of the participant's medical history. Beginning after study drug initiation on Day 1, new clinically relevant findings or worsening of an earlier finding were recorded as an AE. Height (cm) was measured only at Screening. Weight (kg) was recorded throughout the study. Body mass index was calculated and recorded at Screening.
All BP and pulse measurements were obtained with an automated BP device (left arm was preferred) prior to blood draws (or ≥10 m after a blood draw, if necessary). Supine BP was taken at Screening (only) and recorded as the average of 2 measurements obtained at 2-minute intervals after the participant had rested quietly in a semi-recumbent/supine position for ≥5 minutes. Orthostatic vital signs were taken at all scheduled visits and participant was to rest quietly in a supine/semi-recumbent position for ≥5 minutes before supine BP and pulse measurements were recorded, then assume sitting position for ≥1 minute, and finally assume a standing position for 2 (±1) minutes before standing measurements were recorded. […]

[4] = healthy elderly, 15 mg QD, after 14 days
[5] = healthy participants, 15 mg QD for up to 15 days
[6] = two weeks, 15 mg QD, compared with placebo

## Fc1ccccc1Cc1nc(-c2nc(C(F)(F)F)n[nH]2)cn2ccnc12 [Compound I, zagociguat]
rodent
  fMRI-BOLD signals: increased fMRI-BOLD signals
  levels of cGMP in the CNS: increased levels of cGMP in the CNS
  qEEG gamma-band oscillatory power: elevated qEEG gamma-band oscillatory power
mice
  rotenone-induced astrogliosis: lower rotenone-induced astrogliosis
[1]; Phase 1 studies
  PK data, dose dependence: linear and dose-dependent
  PK data, effect of food: not impacted by food
[1]; [4]
  cognitive performance measures: No impact
  neurophysiological parameters by EEG: modest impacts
[1]; [5]
  SAEs: no SAEs reported
  discontinuations due to AEs: no discontinuations due to AEs
  severity of AEs: mild or moderate
rats; 10 mg/kg orally + 1 mg/kg donepezil, 1-2 hours post-dose
  gamma power in combination with donepezil: further increased
rats; oral suspension
  qEEG gamma oscillations / gamma power compared to vehicle dosing: increasing gamma oscillations
rats; orally at 10 mg/kg
  gamma power: increased gamma power
[2]; ASL, all brain regions of interest
  CBF on day 29 compared to baseline (day 1): increase of CBF
[2]; individual patients
  patients with increased CBF between day 1 and day 29: 5 of the 8
Healthy elderly subjects; healthy elderly, 15 mg QD
  N200 auditory event-related potential (ERP) latencies: shortening
  gamma power (EEG): trend increases in gamma power
  posterior alpha power (EEG): increases in posterior alpha power
Healthy elderly subjects; healthy elderly
  neuroimaging by ASL and fMRI BOLD, MRS measurements, NeuroCart CNS function assessments: No changes were observed
Healthy elderly subjects; [6]
  CSF concentration of Alpha 2 macroglobulin (A2M): potentially important reductions
  CSF concentration of complement C3 (C3): potentially important reductions
[3]
  SAEs: no SAEs observed
  adverse events leading to treatment discontinuation: no adverse events leading to treatment discontinuation
  safety signals on clinical labs, vital signs, ECGs, or suicidal rating scale: No safety signals
  tolerability: well tolerated

Reference: patent US20250367191A1, “TREATMENT OF MITOCHONDRIAL DISEASES WITH A CNS-PENETRANT SGC STIMULATOR ZAGOCIGUAT” (Tisento Therapeutics Inc., priority 2022, published 2025)
